# Source: patent publication US20020023385A1, “Method of controlling seed disease” (priority 2000, published 2002)
# Tested on: Xanthomonas campestris p.v. campestris
# Test: Cross-streak culture screening for antagonistic bacteria
# Type: cell-based
# Settings: cross application on potato dextrose-broth-agar medium, 25° C., 3 days
# Experimental: Filamentous fungi and bacteria (hereinafter referred to as “candidate microorganisms” in general) isolated from a seed or a soil is streaked on a same medium as that of the pathogenic microorganisms of the seed borne disease which is a target to be controlled in a dual or cross manner and are cultured for several days under a temperature suitable for growing the pathogenic microorganisms (dual culture). After the microorganism have been cultured, growth thereof are observed; then, the one which apparently controlled the growth of the pathogenic microorganisms by the candidate microorganism is selected as the effective microorganism which has an antagonistic property (Laboratory Guide for Plant Pathology and Microbiology, 459-474, Satoshi Wakimoto et al., Soft Science Inc., 1993).
# Each type of the above-described seeds was shaken in a physiological saline solution (a distilled water solution containing 0.85 weight % of sodium chloride) having 2.5 times the weight of the seeds for 2.5 hours. Then, the solution was evenly streaked on an albumin-agar culture medium. In six days after streaking, a colony which has emerged was isolated and, then, streaked on a potato dextrose-broth-agar culture medium (available from Difco Laborarories, Mich., U.S.A.) in a cross application manner against Xanthomonas campestris p.v. campestris to be cultured at 25° C. […] As a result, three bacterial strains under names of TK-12, TK-151, and TK-185 were obtained. Taxonomic properties of these three strains are shown below in Table 1.
row,Substance,control of growth of Xanthomonas campestris p.v. campestris
1,Pantoea sp. TK-185,controls growth of such Xanthomonas campestris p.v. campestris
2,Pantoea sp. TK-12,controls growth of such Xanthomonas campestris p.v. campestris
3,Leclercia adecarboxylata TK-151,controls growth of such Xanthomonas campestris p.v. campestris
